We go through twelve molecules from ChEMBL document CHEMBL1201862, “PubChem BioAssay data set” (2004).

Molecules are shown by their SMILES.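 The compound was tested at five concentrations on cells cultured in 96-well plates, with a 48-hour exposure period. GI50 marks 50% less growth.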 Active and inactive are the calls of the source. Rule as the data show it: active = GI50 up to about 1.1 µM and inactive = higher. Where only a bound is given, the exact number is not on record here.

Some test systems named below: U-251; RXF 393; OVCAR-3; NCI-H460; K562; SR; HOP-92; OVCAR-5; COLO 205; HL-60; HCC 2998; SNB-75; CAKI-1; KM-20L2; HT-29; A498; SF-268; MDA-MB-435; NCI/ADR-RES; Hs-578T.
What all share (assay): NCI anticancer screen, dose series, 48 h

`COC(=O)c1nc(-c2ccc(Cl)c(Cl)c2)nc2ccc(Cl)cc12`: the GI50 with U-251 is 43.7 µM (inactive); with RXF 393, 22.8 µM (inactive); with OVCAR-3, > 10 µM (inactive); in the experiment with NCI-H460, > 100 µM (inactive); in the experiment on K562, > 10 µM (inactive); with SR it was > 100 µM (inactive). Also, the GI50 was 10.8 µM (inactive) with HOP-92; 27.4 µM (inactive) in the experiment with OVCAR-5; > 100 µM (inactive) with COLO 205; > 100 µM (inactive) in the experiment with HL-60; > 100 µM (inactive) in the experiment with HCC 2998; 19.6 µM (inactive) in the experiment with SNB-75. Further, the GI50 in the experiment on CAKI-1 was > 10 µM (inactive); in the experiment on KM-20L2 it was 21 µM (inactive); in the experiment with HT-29, > 100 µM (inactive); with A498, 73.1 µM (inactive); in the experiment on SF-268 it was 92.9 µM (inactive).

On to `CCOc1ccc2[nH]c3c(C)c4ccncc4c(C)c3c2c1`, for which the GI50 in the experiment on U-251 is 1 µM (active); in the experiment on RXF 393 it was 1.54 µM (inactive); in the experiment with OVCAR-3, 4.27 µM (inactive); with NCI-H460, 0.451 µM (active); in the experiment with K562, 0.377 µM (active); with SR, 0.37 µM (active). Besides, the GI50 with HOP-92 was 1.45 µM (inactive); in the experiment with OVCAR-5, 1.58 µM (inactive); in the experiment on COLO 205 it was 1.21 µM (inactive); with HL-60, 1.2 µM (inactive); with HCC 2998, 1.42 µM (inactive); with SNB-75, 1.71 µM (inactive). In addition, the GI50 is 1.69 µM (inactive) in the experiment on CAKI-1; 1.08 µM (active) in the experiment on KM-20L2; 0.71 µM (active) with HT-29; 1.8 µM (inactive) in the experiment with A498; 1.18 µM (inactive) in the experiment with SF-268.

As for `C[Si](C)(C)/C=C\CCO`, the GI50 with U-251, in the experiment with RXF 393, in the experiment on OVCAR-3, with NCI-H460, with K562 and with SR was > 100 µM (inactive) throughout. For the same molecule, the GI50 with HOP-92, in the experiment on OVCAR-5, in the experiment with COLO 205, in the experiment with HL-60, in the experiment on HCC 2998 and in the experiment with SNB-75 was > 100 µM (inactive) in each case. Also, the GI50 in the experiment on KM-20L2, in the experiment on HT-29, in the experiment on A498 and in the experiment on SF-268 was > 100 µM (inactive) throughout.

Consider `CN(C)C(=O)NC(=S)N(C)C`, for which the GI50 with U-251 was 0.206 µM (active); with RXF 393 it was > 100 µM (inactive); in the experiment on NCI-H460 it was > 100 µM (inactive); with K562, > 100 µM (inactive); in the experiment with SR, > 100 µM (inactive); in the experiment on HOP-92, > 100 µM (inactive). Further, the GI50 in the experiment with OVCAR-5, with HL-60, with HCC 2998, in the experiment with SNB-75, in the experiment on CAKI-1 and in the experiment on KM-20L2 was > 100 µM (inactive) each time. Moreover, the GI50 in the experiment on HT-29, in the experiment on A498 and with SF-268 was > 100 µM (inactive) throughout.

Take `C/C(=C\CC/C=C(\C)CC/C=C(\C)CCC1SC1(C)C)CC/C=C(\C)CCC1OC1(C)C` (stereo unspecified): the GI50 is > 100 µM (inactive) in the experiment on U-251; 89.7 µM (inactive) in the experiment with RXF 393; > 100 µM (inactive) in the experiment on OVCAR-3; > 100 µM (inactive) in the experiment on NCI-H460; > 100 µM (inactive) in the experiment with K562; > 100 µM (inactive) in the experiment with SR. Moreover, the GI50 in the experiment on HOP-92, with COLO 205, in the experiment on HL-60, with HCC 2998, in the experiment on SNB-75 and with CAKI-1 was > 100 µM (inactive) throughout. In addition, the GI50 in the experiment on KM-20L2, in the experiment on HT-29, in the experiment on A498 and with SF-268 was > 100 µM (inactive) throughout.

Consider `c1ccc(C2(c3ccccc3)SSC3(S2)C2CC4CC(C2)CC3C4)cc1` (stereo unspecified), for which the GI50 in the experiment on U-251 was > 100 µM (inactive); in the experiment with RXF 393 it was > 100 µM (inactive); with NCI-H460, > 100 µM (inactive); in the experiment on K562, > 100 µM (inactive); with SR it was > 59.2 µM (inactive); in the experiment with HOP-92, > 100 µM (inactive). In addition, the GI50 in the experiment with OVCAR-5 was > 100 µM (inactive); with HL-60, 35.9 µM (inactive); in the experiment on HCC 2998, > 100 µM (inactive); with SNB-75, > 100 µM (inactive); in the experiment on CAKI-1, > 100 µM (inactive); with KM-20L2, > 100 µM (inactive). Moreover, the GI50 in the experiment on HT-29, with A498 and with SF-268 was > 100 µM (inactive) in each case.

Turning to `COc1ccc2c(c1[N+](=O)[O-])CC[C@@H]1[C@@H]2CC[C@]2(C)C(=O)CC[C@@H]12`, the GI50 in the experiment with U-251 is > 25 µM (inactive); in the experiment with RXF 393, > 25 µM (inactive); in the experiment with OVCAR-3, > 25 µM (inactive); in the experiment on NCI-H460, 24.9 µM (inactive); in the experiment on K562 it was 24.9 µM (inactive); in the experiment with MDA-MB-435 it was > 25 µM (inactive). Also, the GI50 is > 1000 µM (inactive) with SR; > 25 µM (inactive) in the experiment with NCI/ADR-RES; 21.4 µM (inactive) in the experiment with HOP-92; > 25 µM (inactive) in the experiment on OVCAR-5; 21.8 µM (inactive) in the experiment on COLO 205; 24.5 µM (inactive) with HL-60. For the same molecule, the GI50 with Hs-578T was 17.1 µM (inactive); in the experiment with HCC 2998, > 1000 µM (inactive); in the experiment on SNB-75, > 25 µM (inactive); in the experiment with CAKI-1, > 25 µM (inactive); in the experiment on KM-20L2, > 25 µM (inactive); in the experiment with HT-29, > 25 µM (inactive). The GI50 with A498 and with SF-268 was > 25 µM (inactive) throughout.

Regarding `O=C(O)/C(Cl)=C(\Cl)C(=O)NC1C2CC3CC(C2)CC1C3` (stereo unspecified), the GI50 in the experiment on U-251, in the experiment on OVCAR-3, with K562, in the experiment on SR, with HOP-92 and with OVCAR-5 was > 100 µM (inactive) throughout. Besides, the GI50 in the experiment with COLO 205, in the experiment on HL-60, in the experiment with HCC 2998, in the experiment with SNB-75, with CAKI-1 and in the experiment on KM-20L2 was > 100 µM (inactive) throughout. Besides, the GI50 in the experiment with HT-29, with A498 and in the experiment with SF-268 was > 100 µM (inactive) throughout.

Regarding `CN(C)CC1CCC/C1=N\O` (stereo unspecified), the GI50 in the experiment on U-251, in the experiment on RXF 393, in the experiment on OVCAR-3, with NCI-H460, with K562 and with SR was > 100 µM (inactive) throughout. In addition, the GI50 with HOP-92, with OVCAR-5, in the experiment with COLO 205, in the experiment with HCC 2998, in the experiment with SNB-75 and with CAKI-1 was > 100 µM (inactive) each time. For the same molecule, the GI50 in the experiment with KM-20L2, in the experiment on HT-29, with A498 and in the experiment with SF-268 was > 100 µM (inactive) each time.

As for `Cc1nccc2c1cnc1ccnn12`, the GI50 in the experiment on U-251, in the experiment on RXF 393, with OVCAR-3, in the experiment with NCI-H460, in the experiment on K562 and in the experiment with SR was > 100 µM (inactive) in each case. In addition, the GI50 with HOP-92, with OVCAR-5, in the experiment with COLO 205, in the experiment on HL-60, in the experiment on HCC 2998 and in the experiment with SNB-75 was > 100 µM (inactive) each time. Further, the GI50 with CAKI-1, in the experiment with KM-20L2, in the experiment on HT-29, in the experiment on A498 and in the experiment with SF-268 was > 100 µM (inactive) in each case.

`Cc1cn(C2CC(OC3CCCCO3)C(CO)O2)c(=O)[nH]c1=O` (stereo unspecified): the GI50 in the experiment on U-251, with RXF 393, in the experiment with OVCAR-3, with NCI-H460, in the experiment on K562 and in the experiment on SR was > 100 µM (inactive) each time. Besides, the GI50 in the experiment on HOP-92, in the experiment on OVCAR-5, in the experiment on COLO 205, with HL-60, with HCC 2998 and with KM-20L2 was > 100 µM (inactive) throughout. The GI50 in the experiment with HT-29, with A498 and in the experiment on SF-268 was > 100 µM (inactive) each time.

In the case of `C1CCNCC1.S=C(S)N1CCCCC1`, the GI50 in the experiment with U-251 is 1.46 µM (inactive); in the experiment with RXF 393, 190 µM (inactive); in the experiment on OVCAR-3 it was 71 µM (inactive); in the experiment with K562, 0.601 µM (active); in the experiment with MDA-MB-435, 199 µM (inactive); with SR, 0.46 µM (active). Also, the GI50 in the experiment with NCI/ADR-RES is 19.3 µM (inactive); in the experiment on HOP-92 it was 95.1 µM (inactive); in the experiment with OVCAR-5 it was 213 µM (inactive); in the experiment with HL-60, 0.307 µM (active); in the experiment on Hs-578T, 163 µM (inactive); with HCC 2998, 100 µM (inactive). For the same molecule, the GI50 in the experiment with SNB-75 is 61.2 µM (inactive); with CAKI-1, 33.4 µM (inactive); with KM-20L2 it was 100 µM (inactive); in the experiment with A498, 36.7 µM (inactive); with SF-268, 75.7 µM (inactive).
